Patent US20090047368A1, “Polymeric polyphenol extracted from fermented tea, therapeutic agent for mitochondrial disease, preventive/therapeutic agent for diabetes mellitus, and food or beverage” (University Of Tsukuba, priority 2004, published 2009)

Tested on: B6 mice (C57BL)
Assay: Blood glucose in B6 mice, high- versus low-molecular-weight polyphenols
Type: in vivo
Conditions: 0.27 mg/day intraperitoneal, 15 days
Description: The procedures for the experiment were similar to those employed in Example 7. In this experiment, B6 mice (C57BL; purchased from CLEA Japan, Inc.) were used. […] The low-molecular-weight polyphenol group was given a PBS solution of epicatechin daily through intraperitonal injection at a dose of 0.27 mg/day. Blood samples were collected on the first day of the administration and 15 days thereafter for the measurement of blood glucose levels. […] The horizontal axis in the figure represents the number of days from the start of the administration. The vertical axis represents percentage (%) changes in blood glucose based on the blood glucose level on the first day at 100.

Oc1cc(O)c2c(c1)O[C@H](c1ccc(O)c(O)c1)[C@H](O)C2 [low-molecular-weight polyphenols, epicatechin]
decrease in blood glucose relative to the first day (100): little change
